In patent publication US9855292B2, “Cyanocobalamin, methylcobalamin, and/or adenosylcobalamin to help maintain a pain-free head and pain-free body and provide defense against headaches and body pain” (priority 2013, dated 2018):
Read-outs that look alike come from different tables or passages of the source. Values belong to the compound of their own block, whether it stands above or below them.

Key:
[1] = test system: moderate to moderately severe seasonal allergic rhinitis in humans; assay: Example 2 Phase 3 study: allergy symptom scores; format: in vivo, human; conditions: Weeks 4, 5 and 6; ITT; sneezing, runny nose, nasal congestion, nasal itch and eye itch
Description: (§1) This clinical study was designed and directed by the inventor of the current patent. A large, multi-center, Phase 3, randomized, placebo-controlled clinical study on 1,551 patients was designed and directed by the inventor of the current patent. Methods: The study was titled: “A Phase 3, randomized, double-blind, placebo-controlled, parallel group study of the safety and efficacy of pre-seasonal sublingual cyanocobalamin lozenges on moderate to moderately severe seasonal allergic rhinitis in humans”. The study took place before and during the ragweed pollen season at 23 study sites in the Midwest, Northeast and Central Texas regions of the United States. Essentially all of the 23 investigators were Board Certified in Allergy/Immunology. Qualified subjects were randomized into an active or placebo group (approximately 50% and 50%) using an interactive voice recognition system (IVRS). All subjects (or their guardians) signed an Informed Consent form approved by the IRB. Each subject had three visits to the clinic. […] The blood samples were analyzed by chemiluminescent immunoassay for the presence of ragweed specific immunoglobulin epsilon (IgE), and were assayed for cobalamins (cyanocobalamin, methylcobalamin and adenosylcobalamin) levels. […]

[2] = test system: human subjects with demonstrated seasonal allergic rhinitis (hay fever); assay: Example 1 clinical study: reports of Headache after 21 days of study medication; format: in vivo; conditions: for post-treatment reports of Headache, decrease from baseline: active group
Protocol: This clinical study was designed and directed by the inventor of the current patent. […] Subjects were given their study medication, either Cyanocobalamin, USP or placebo in the a.m. and p.m. every day for 21 consecutive days. Data on adverse events including headache was captured throughout the ten-week duration of the study. Week One was a baseline during which time no medication was administered; Weeks Two, Three and Four were the weeks during which time the subjects received their study medication; and Weeks Five through Ten were a post-treatment period during which time no medication was administered but observations of symptoms and adverse events were documented. Each time a subject felt a “Headache”, he or she reported its occurrence.

[3] = Example 2 Phase 3 study: blood serum cobalamin levels; format: in vivo, human; conditions: cyanocobalamin, methylcobalamin and adenosylcobalamin; 3.3 mg a.m. and p.m., six weeks
Description: as §1

migraine patients [4] = conditions: 2 mg intramuscularly every two weeks for two months, cited from earlier work
[5] = test system: headache and body pain in humans; assay: Example 2 Phase 3 study: documented reports of headache and body pain; format: in vivo, human; conditions: active group
Description: This clinical study was designed and directed by the inventor of the current patent. A large, multi-center, Phase 3, randomized, placebo-controlled clinical study on 1,551 patients was designed and directed by the inventor of the current patent. Methods: The study was titled: “A Phase 3, randomized, double-blind, placebo-controlled, parallel group study of the safety and efficacy of pre-seasonal sublingual cyanocobalamin lozenges on moderate to moderately severe seasonal allergic rhinitis in humans”. The study took place before and during the ragweed pollen season at 23 study sites in the Midwest, Northeast and Central Texas regions of the United States. Essentially all of the 23 investigators were Board Certified in Allergy/Immunology. Qualified subjects were randomized into an active or placebo group (approximately 50% and 50%) using an interactive voice recognition system (IVRS). All subjects (or their guardians) signed an Informed Consent form approved by the IRB. Each subject had three visits to the clinic. At Visit 1 and at Visit 3, they were given a physical exam (HEENT, chest, lungs, heart, vital signs, height and weight); and donated blood and urine samples for laboratory analysis. CBC and chemistry panels were run for safety analyses. The blood samples were analyzed by chemiluminescent immunoassay for the presence of ragweed specific immunoglobulin epsilon (IgE), and were assayed for cobalamins (cyanocobalamin, methylcobalamin and adenosylcobalamin) levels.
Subjects were given their study medication, either 3.3 mg Cyanocobalamin, USP or placebo in the a.m. and p.m. Subjects were instructed to let the study drug “dissolve completely in your mouth, especially under your tongue, then swallow.”. Subjects self-administered the study medications for six consecutive weeks.
Any adverse event (AE) or serious adverse event (SAE) was documented by the subject in a paper diary and then transcribed to the appropriate case report form (CRF) page. All SAEs were attended to by the investigator, and reported to the FDA by the sponsor. All sites were monitored multiple times by qualified monitors.
The following types of headaches were self-diagnosed and documented by subjects in the study: tension headache, headache, migraine, increased frequency of headaches, worsening sinus migraine headache, increased headache, headache worsening, worsening of migraine, sinus headache, severe sinus headache, and sinus pressure headache.
The following types of body pains and myasthenia were self-diagnosed and documented by subjects in the study: ear pain, earache, sore throat, sore muscles, leg cramps, myalgia, back pain, sprained ankle, ache, toothache, hip pain, finger pain, knee pain, pulled back muscle, shoulder pain, pulled hamstring, neck pain, femur pain, gum pain, sore muscle, toenail pain, sore foot, and pulled neck muscle.

[6] = Example 2 Phase 3 study: safety; format: in vivo, human; conditions: 3.3 mg a.m. and p.m., six weeks
Description: This clinical study was designed and directed by the inventor of the current patent. A large, multi-center, Phase 3, randomized, placebo-controlled clinical study on 1,551 patients was designed and directed by the inventor of the current patent. Methods: The study was titled: “A Phase 3, randomized, double-blind, placebo-controlled, parallel group study of the safety and efficacy of pre-seasonal sublingual cyanocobalamin lozenges on moderate to moderately severe seasonal allergic rhinitis in humans”. The study took place before and during the ragweed pollen season at 23 study sites in the Midwest, Northeast and Central Texas regions of the United States. Essentially all of the 23 investigators were Board Certified in Allergy/Immunology. Qualified subjects were randomized into an active or placebo group (approximately 50% and 50%) using an interactive voice recognition system (IVRS). […] The blood samples were analyzed by chemiluminescent immunoassay for the presence of ragweed specific immunoglobulin epsilon (IgE), and were assayed for cobalamins (cyanocobalamin, methylcobalamin and adenosylcobalamin) levels.
Any adverse event (AE) or serious adverse event (SAE) was documented by the subject in a paper diary and then transcribed to the appropriate case report form (CRF) page. […] All sites were monitored multiple times by qualified monitors.

migraine patients [7] = conditions: cited from earlier work; for mean migraine severity: 0-3 scale, all subjects

- average increase in post-treatment blood serum cobalamin levels [3]: more than 250%
Compound: 5,6-dimethylbenzimidazolyl cyanocobamide [cyanocobalamin]
- reduction in allergy symptom severity from baseline versus placebo [1]: greater for the active group than the placebo group
- post-treatment reports of Headache, decrease from baseline ([2]; Week Eight): −2.1
- post-treatment reports of Headache, decrease from baseline ([2]; Week Five): −1.4
- post-treatment reports of Headache, decrease from baseline ([2]; Week Nine): −3.4
- post-treatment reports of Headache, decrease from baseline ([2]; Week Seven): −1.4
- post-treatment reports of Headache, decrease from baseline ([2]; Week Six): −1.6
- post-treatment reports of Headache, decrease from baseline ([2]; Week Ten): −3.2
- persistence of effect per follow-up questionnaire ([2]; almost one year later, 43 active and 49 placebo subjects): persistence of effect lasting almost one year
- persistence of effect after finishing the treatment ([2]; post-treatment Weeks Five through Ten): at least six weeks
- greater reduction in the frequency of headache in the active group versus placebo ([2]; six post-treatment weeks): five out of six post-treatment weeks
- authors' conclusion on therapeutic effect (migraine patients [4]): no therapeutic effect attributable to cyanocobalamin was demonstrated
- patients reporting Considerable improvement (migraine patients [4]; active n=15): 2
- patients reporting Good result (migraine patients [4]; active n=15): 4
- headache and body pain reports rated Mild [5]: 63 reports
- headache and body pain reports rated Mild, share [5]: 46.0%
- headache and body pain reports rated Moderate [5]: 68 reports
- headache and body pain reports rated Moderate, share [5]: 49.6%
- headache and body pain reports rated Severe [5]: 6 reports
- headache and body pain reports rated Severe, share [5]: 4.4%
- documented reports of some type of headache and of body pain ([5]; of 294 reports in total): 137 reports
- safety / tolerability [6]: well tolerated

Compound: C/C1=C2/[N-][C@H]([C@H](CC(N)=O)[C@@]2(C)CCC(=O)NC[C@@H](C)OP(=O)([O-])O[C@H]2[C@@H](O)[C@@H](n3cnc4cc(C)c(C)cc43)O[C@@H]2CO)[C@]2(C)N=C(/C(C)=C3N=C(/C=C4N=C1[C@@H](CCC(N)=O)C\4(C)C)[C@@H](CCC(N)=O)[C@]\3(C)CC(N)=O)[C@@H](CCC(N)=O)[C@]2(C)CC(N)=O.[Co+3].[OH-] [hydroxocobalamin]
- mean migraine severity (migraine patients [7]; at baseline): 2.2
- mean migraine severity (migraine patients [7]; at the end of the study): 2.1
- effect on migraine (migraine patients [7]; intranasal, unblinded, open-label, 19 migraine patients): can have an effect on migraine
